How the values were obtained:
Experiment in all cases: relative viability (nuclei count vs DMSO), 5 days (fraction); higher = more cells survive
HCC-15 = system: HCC-15
How it was run: (§1)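 The day after seeding in 1536-well plates, lung cancer cell lines were treated by pin tool with a single drug, or with a fixed anchor-drug dose together with five library-drug doses (not always all listed) in √10 steps. After 5 days, a combined fix-and-stain solution (final 0.05% Triton X-100, 1% formaldehyde, 1 ug/ml Hoechst) was added. Nuclei counted on 4× images gave relative viability as treated counts over vehicle counts, reported as the median of duplicate plates.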

NCI-H1651 = system: NCI-H1651
How it was run: as §1

EMC-BAC-2 = system: EMC-BAC-2
How it was run: as §1

BEN = system: BEN
How it was run: as §1

NCI-H838 = system: NCI-H838
How it was run: as §1

NCI-H358 = system: NCI-H358
How it was run: as §1

NCI-H2023 = system: NCI-H2023
How it was run: as §1

LK-2 = system: LK-2
How it was run: as §1

COR-L 105 = system: COR-L 105
How it was run: as §1

NCI-H322M = system: NCI-H322M
How it was run: as §1

ABC-1 = system: ABC-1
How it was run: as §1

NCI-H1563 = system: NCI-H1563
How it was run: as §1

NCI-H727 = system: NCI-H727
How it was run: as §1

201T = system: 201T
How it was run: as §1

HCC-44 = system: HCC-44
How it was run: as §1

NCI-H520 = system: NCI-H520
How it was run: as §1

CAL-12T = system: CAL-12T
How it was run: as §1

NCI-H460 = system: NCI-H460
How it was run: as §1

EKVX = system: EKVX
How it was run: as §1

LU99A = system: LU99A
How it was run: as §1

PC-3 [JPC-3] = system: PC-3 [JPC-3]
How it was run: as §1

SMILES: Nc1cccc2c1CN(C1CCC(=O)NC1=O)C2=O (centres undefined) [Lenalidomide] + CS(=O)(=O)CCNCc1ccc(-c2ccc3ncnc(Nc4ccc(OCc5cccc(F)c5)c(Cl)c4)c3c2)o1 [Lapatinib] (partner 2 µM)
- relative viability (HCC-15; first compound 0.253 µM): 0.902
- relative viability (HCC-15; first compound 2.53 µM): 1.07
- relative viability (HCC-15; first compound 8 µM): 0.841
- relative viability (NCI-H1651; first compound 0.253 µM): 0.825
- relative viability (NCI-H1651; first compound 0.8 µM): 0.867
- relative viability (NCI-H1651; first compound 2.53 µM): 1.25
- relative viability (NCI-H1651; first compound 8 µM): 0.88
- relative viability (EMC-BAC-2; first compound 0.253 µM): 0.921
- relative viability (EMC-BAC-2; first compound 0.8 µM): 0.825
- relative viability (EMC-BAC-2; first compound 2.53 µM): 0.905
- relative viability (EMC-BAC-2; first compound 8 µM): 0.754
- relative viability (BEN; first compound 0.253 µM): 0.898
- relative viability (BEN; first compound 0.8 µM): 0.587
- relative viability (BEN; first compound 2.53 µM): 0.918
- relative viability (BEN; first compound 8 µM): 0.489
- relative viability (NCI-H838; first compound 0.253 µM): 0.807
- relative viability (NCI-H838; first compound 0.8 µM): 0.956
- relative viability (NCI-H838; first compound 2.53 µM): 1.34
- relative viability (NCI-H838; first compound 8 µM): 0.816
- relative viability (NCI-H358; first compound 0.253 µM): 0.41
- relative viability (NCI-H358; first compound 0.8 µM): 0.623
- relative viability (NCI-H358; first compound 2.53 µM): 0.51
- relative viability (NCI-H358; first compound 8 µM): 0.453
- relative viability (NCI-H2023; first compound 0.253 µM): 0.74
- relative viability (NCI-H2023; first compound 0.8 µM): 0.859
- relative viability (NCI-H2023; first compound 2.53 µM): 0.838
- relative viability (NCI-H2023; first compound 8 µM): 0.568
- relative viability (LK-2; first compound 0.253 µM): 0.884
- relative viability (LK-2; first compound 2.53 µM): 0.864
- relative viability (LK-2; first compound 8 µM): 0.709
- relative viability (COR-L 105; first compound 0.253 µM): 0.386
- relative viability (COR-L 105; first compound 0.8 µM): 0.364
- relative viability (COR-L 105; first compound 2.53 µM): 0.343
- relative viability (COR-L 105; first compound 8 µM): 0.33
- relative viability (NCI-H322M; first compound 0.253 µM): 0.648
- relative viability (NCI-H322M; first compound 0.8 µM): 0.629
- relative viability (NCI-H322M; first compound 2.53 µM): 0.592
- relative viability (NCI-H322M; first compound 8 µM): 0.635
- relative viability (ABC-1; first compound 0.253 µM): 1.13
- relative viability (ABC-1; first compound 2.53 µM): 1.11
- relative viability (ABC-1; first compound 8 µM): 1.34
- relative viability (NCI-H1563; first compound 0.253 µM): 0.919
- relative viability (NCI-H1563; first compound 0.8 µM): 0.852
- relative viability (NCI-H1563; first compound 2.53 µM): 0.979
- relative viability (NCI-H1563; first compound 8 µM): 0.763
- relative viability (NCI-H727; first compound 0.253 µM): 0.685
- relative viability (NCI-H727; first compound 2.53 µM): 1
- relative viability (NCI-H727; first compound 8 µM): 0.781
- relative viability (201T; first compound 0.253 µM): 1.07
- relative viability (201T; first compound 0.8 µM): 0.815
- relative viability (201T; first compound 2.53 µM): 1.02
- relative viability (201T; first compound 8 µM): 0.954
- relative viability (HCC-44; first compound 0.253 µM): 0.997
- relative viability (HCC-44; first compound 0.8 µM): 0.799
- relative viability (HCC-44; first compound 2.53 µM): 1.05
- relative viability (HCC-44; first compound 8 µM): 0.924
- relative viability (NCI-H520; first compound 0.253 µM): 0.82
- relative viability (NCI-H520; first compound 0.8 µM): 0.929
- relative viability (NCI-H520; first compound 2.53 µM): 1.11
- relative viability (NCI-H520; first compound 8 µM): 0.637
- relative viability (CAL-12T; first compound 0.253 µM): 0.602
- relative viability (CAL-12T; first compound 2.53 µM): 0.801
- relative viability (CAL-12T; first compound 8 µM): 0.403
- relative viability (NCI-H460; first compound 0.253 µM): 0.981
- relative viability (NCI-H460; first compound 0.8 µM): 1.14
- relative viability (NCI-H460; first compound 2.53 µM): 1.66
- relative viability (NCI-H460; first compound 8 µM): 1.01
- relative viability (EKVX; first compound 0.253 µM): 0.208
- relative viability (EKVX; first compound 0.8 µM): 0.173
- relative viability (EKVX; first compound 2.53 µM): 0.189
- relative viability (EKVX; first compound 8 µM): 0.157
- relative viability (LU99A; first compound 0.253 µM): 0.922
- relative viability (LU99A; first compound 0.8 µM): 0.919
- relative viability (LU99A; first compound 2.53 µM): 0.894
- relative viability (LU99A; first compound 8 µM): 0.56
- relative viability (PC-3 [JPC-3]; first compound 0.253 µM): 0.515
- relative viability (PC-3 [JPC-3]; first compound 0.8 µM): 0.377
- relative viability (PC-3 [JPC-3]; first compound 2.53 µM): 0.496
- relative viability (PC-3 [JPC-3]; first compound 8 µM): 0.389

From the supplement of paper PMC10307832
